Laboratory results: patent EP0212310A2, “Use of probucol in the preparation of a medicament for the treatment of heart arrhythmia” (priority 1985, dated 1987)
Values joined by “and” are separate entries in the source; they are usually repeats but may differ in a detail not shown here. Equal values may be shown once.

How the values were obtained:
[1] = system: Patienten mit Hyperlipoproteinämie; test: 12-lead standard ECG: QT time and heart rate in verum and placebo phases of a controlled study; format: in vivo
Text: Je ein 12-Ableitungs-Standard-EKG wurde registriert. • 1. In der Placebophase • 2. In der Verumphase nach 12 Wochen • 3. In der Verumphase nach 24 Wochen • 4. In der Placebophase 42 Tage nach Absetzen von Probucol
Für jede der Aufzeichnungen wurde jeweils die frequenzkorrigierte QT-Zeit ermittelt (Bazett-Formula).
Unter Verwendung des Wilcoxon-Tests für verbundene Stichproben wurde geprüft, ob ein signifikanter Unterschied der QT-Dauer zwischen den Placebophasen und den Verumphasen besteht.

[2] = system: Patienten mit Hyperlipoproteinämie; test: 24-hour long-term ECG: arrhythmia frequency under placebo (control) and under verum; format: in vivo
Text: Von allen 42 Patienten wurde mittels Oxfolg-Medilog II Registriergeräten ein 24-Stunden-Langzeit-EKG sowohl in der Verum- als auch in der Placebophase registriert.
Die Bänder wurden ohne Kenntnis der Therapie unter Verwendung eines Reynolds Pathfinder-Analysesytems ausgewertet, dessen Sensitivität zur Identifikation von QRS-Komplexion bei 99 %, zur Erkennung ventrikulärer Extrasystolen bei 96 % lag. Neben den normalen und extrasystolischen QRS-Komplexen wurden auch die folgenden Arrhythmieformen quantitativ erfaßt: supraventrikuläre Extrasystolen, supraventrikuläre Tachykardien, ventrikuläre Extrasystolen, R/T-Phänomene,gepaarte ventrikuläre Extrasystolen, mehrere hintereinander auftretende ventrikuläre Extrasystolen, Kammertachykardien, ventrikuläre Bigemini und Asystolien. Darüber hinaus wurden erfaßt Phasen intermittierenden Vorhofflimmerns, intermittierende Schenkelblockbilder und das Herzfrequenzverhalten.
Die stündliche Häufigkeit der verschiedenen Rhythmusstö-rungen wurden erfaßt und auf einem Computerausdruck dokumentiert. Die Analyse wurde korrigiert, indem der Vorgang jedes Mal unterbrochen wurde, wenn eine ventrikuläre Extrasystole erkannt wurde. Diese wurde dann jeweils 1 : 1 auf EKG-Papier ausgeschrieben und durch den Untersucher verifiziert. Im Falle der falsch positiven Erkennung eines Ereignisses wurde der Computerausdruck entsprechend korrigiert. Dadurch wurde die positive Korrektheit der Analyse auf 100 % gesteigert. In Tabelle 3 sind die korri gierten Ergebnisse wiedergegeben.
Bei der relativen Seltenheit komplexer tachykarder ventrikulärer Rhythmusstörungen im untersuchten Kollektiv wurde eine Bewertung des Therapieeffektes lediglich für die ventrikulären Extrasystolen vorgenommen. Hierbei ließ sich die Frage nach einem möglichen paradoxen arrhythmogenen Effekt naturgemäß für alle Patienten beantworten, die Frage nach einem antiarrhythmischen Effekt dagegen nur bei den Patienten, deren spontane Arrhythmiehäufigkeit in der Placebophase eine gewisse Häufigkeit überschritt. Hierfür wurde willkürlich eine Grenze von wenigstens einer Extrasystole/Stunde, entsprechend 24 in 24 Stunden, gefordert.
Als Hinweis auf einen möglichen paradoxen arrhythmogenen Effekt des Medikaments werteten wir eine Zunahme der Extrasystoliehäufigkeit gegenüber Placebo um wenigstens 150 %. Als Hinweis auf einen möglichen antiarrhythmischen Effekt werteten wir eine Abnahme der spontanen Extrasystoliehäufigkeit um wenigstens 60 %, als Hinweise auf einen wahrscheinlichen antiarrhythmischen Effekt eine Abnahme der Extrasystoliehäufigkeit um wenigstens 75 %.

[3] = system: Patienten mit Hyperlipoproteinämie; settings: in vivo
Text: Bei 42 Patienten mit Hyperlipoproteinämie wurde im Rahmen einer kontrollierten Studie die Wirkung von Probucol gegen Placebo geprüft.

[4] = number out of 17 patients with more than 1 VES/h under placebo

CC(C)(Sc1cc(C(C)(C)C)c(O)c(C(C)(C)C)c1)Sc1cc(C(C)(C)C)c(O)c(C(C)(C)C)c1 [Probucol]
Verlängerung der frequenzkontrollierten QT-Zeit ([1]; 1000 mg daily, versus placebo): ca. 5%
Verum-2 F Mittelw. ([1]; mean, N 41, phase Verum-2): 64,32
Verum-2 QT Mittelw. ([1]; mean, N 41, phase Verum-2): 0,40
Verum-4 F Mittelw. ([1]; mean, N 41, phase Verum-4): 66,49
Verum-4 QT Mittelw. ([1]; mean, N 41, phase Verum-4): 0,38
frequenzkorrigierte QT-Zeit unter Probucol im Vergleich zu den Placebophasen ([1]; therapy phase 1 or 2 versus placebo phase 1 or 2, p = 0.002, Wilcoxon test): signifikant verlängert
Patienten mit Abnahme der Extrasystolie um wenigstens 60 % ([2]; further patients out of the 8 with more than 15 VES/h spontaneous frequency): Drei
komplexe tachykarde ventrikuläre Rhythmusstörungen unter Therapie ([2]; in the 3 patients with paradoxical arrhythmogenic effect): Bei keinem der 3 Patienten
Patienten mit signifikanter Zunahme der spontanen Arrhythmiehäufigkeit unter Probucol (paradoxe arrhythmogene Wirkung) ([2]; in vivo): 3
ventrikulärer Bigeminus ([2]; in vivo): bei einem Patienten unter Verum, jedoch nicht unter Placebo
Abnahme der Extrasystoliefrequenz ([2]; individual values of the 8 patients with more than 15 VES/h spontaneous frequency): 60% and 66% and 69% and 89% and 90% and 94% and 95% and 100%
Patienten mit statistisch signifikanter Abnahme der Extrasystoliefrequenz um mehr als 75 % ([2]; number out of 8 patients with more than 15 VES/h spontaneous frequency): 5
Patienten mit Reduktion der Extrasystolen unter Therapie über 75 % [2, 4]: 7
Patienten mit Reduktion der Extrasystolen zwischen 60 und 75 % [2, 4]: 3
Patienten mit Reduktion der spontanen Extrasystoliefrequenz, die auf eine antiarrhythmische Wirkung hinweist ([2]; share of the 17 patients with more than 1 VES/h under placebo, reduction of at least 60 %): 59%
Nebenwirkungen [3]: gelegentlich Durchfall, Bauchschmerzen und Kopfschmerzen
